Results as given in patent US20100184644A1, “MUCOSAL REPAIR BY TFF DIMER PEPTIDES” (priority 2001, published 2010).
No end group written: not given here.

Tests used:
[1] = system: mucin I (crude mucin, type II from porcine stomach); experiment: Oscillatory rheometer measurement of mucin solution and mucin/TFF3 dimer gel-like material; conditions: for Elastic modules G′ / Viscous modulus G″: 2 ml 10% (w/v) mucin I + 10 mg TFF3 dimer in 0.4 ml water, 30 min, 20° C.
Description: FIG. 3. Oscillatory measurement of mucin solution (a) and mucin/TFF3 dimer peptide gel-like material (b). 2 ml of 10% (w/v) mucin I dissolved in 0.05% (w/v) sodiumazide was added 0.4 ml of water (a) or 0.4 ml of water containing 10 mg TFF3 dimer peptide (b). After 30 min at 20° C. a sinosoidally varying stress was applied and the strain response was detected at different frequencies. The complex viscosity (η*) ? the elastic modulus (G′) ? and the viscous modulus (G″) ? was calculated and plotted as a function of different frequencies.
(§1) Rheological measurements. Rheological properties were measured by the use of a rotational Reologica Rheometer (Reologica Instriments AB, Lund, Sweden). The instrument is equipped with a stainless steel C40 4 cone-plate (40 mm diameter plate with an angle of 4 degree) requiring a sample volume of at least 1.2 ml. The instrument was operated using instrument standard software (Version 3.6) allowing several different types of measurements. In the present study we have used the measuring programs: Constant Rate (viscosity and stress as a function of shear rate), Oscillation (complex viscosity, elastic modulus and viscous modulus at different frequencies) and Oscillation Stress Sweep (to identify the stress range inside which the measurement results are linear i.e. independent of the applied stress).
In order to characterise the mucin/TFF dimer peptide gel-like structure, the technique of oscillatory measurement in which the gel-like material are subjected to a sinusoidaily varying stress is applied and the strain response is measured. Before this measurement is carried out an oscillation stress sweep programme is used to define the so-called linear viscoelastic region. Inside this region no change of the mucin/TFF dimer peptide structure occurs and the relation between the applied stress and the measured quantities is linear.
This type of experiments allow the estimation of several rheological parameters as a function of frequency: complex viscosity η*, elastic modulus G′ and viscous modulus G″ (for detailed rheological theory see Barnes, H. A. (1989) An introduction to rheology. Elsevier and Ferguson, J. and Kemblowski, Z. (1991) Applied fluid rheology. Elsevier)

[2] = system: mucin I (crude mucin, type II from porcine stomach); experiment: Viscosity versus shear rate (constant rate rheometer programme); conditions: 2 ml 10% (w/v) mucin I + 7.05 mg TFF3 dimer; 30 min, 20° C.; FIG. 4
Description: FIG. 4. Viscosity versus shear rate of TFF3 dimer peptides. 2 ml 10% (w/v) mucin I dissolved in 0.05% sodiumazide was added 7.05 mg TFF3 dimer dissolved in water. After 30 min at 20° C. the viscosity was measured as function of shear rate using the software programme: “constant rate”. ? mucin I alone; Δ—Δ: mucin I+TFF3 dimer.
as §1

[3] = system: Mitomycin C induced colitis; experiment: Mitomycin C induced colitis model, luminal TFF3; assay type: in vivo, rat
Description: (§2) Methods: 32 female wistar rats weighing 200 g were used in the study. The effect of luminal TFF3 was investigated in two rat models of colitis—the Mitomycin C induced colitis model (Keshavarzian A. et al. J. Lab Clin. Med. 1992; 120:778-91) and the dextran induced colitis model (Mottet N K. Gastroenterology 1972; 62:1269-71). TFF3 was administrated directly into the proximal part of the colon by means of a soft polyethylene tube which in anaesthezised rats at a laparotomy, was inserted into the colonic lumen, secured by 6-0 silk sutures and lead subcutaneously to the neck region of the rat.
Mitomycin C colitis: In 16 rats colitis was induced by means of Mitomycin C, 3.75 mg/kg. Eight of the rats were given TFF3, 5 mg/kg in 0.5 ml H2O, two times each day from day 4-7 into the colonic tube. The 8 controls received NaCl. The rats were sacrificed by means of an overdose of barbiturate 8 days after mitomycin administration. The colon was fixed by intraluminal injection of 10% formalin, and after 10 minutes opened and suspended on a polyethylene plate. […] The colonic specimens were investigated by means of a Wild Photomacroscope—the extent of disease and the number of ulcerations were quantitated. […] The severety of colitis was scored by means of a histologic colitis score (FIG. 5, Williams K L. et al. Gastroenterology 2001; 120:925-37).

[4] = system: dextran induced colitis; experiment: Dextran induced colitis model, luminal TFF3; assay type: in vivo, rat
Description: as §2
Dextran colitis: In 16 rats colitis was induced by means of dextran sulphate sodium 5% administered in the drinking water. Eight of the rats were given TFF3, 5 mg/kg in 0.5 ml H2O into the colonic tube, two times each day from the day before the initiation of dextran supplementation till day 9, where the rats were sacrificed. The 8 controls recieved NaCl. The rats were sacrificed by means of an overdose of barbiturate. The colon was fixed by intraluminal injection of 10% formalin, and after 10 minutes opened and suspended on a polyethylene plate. After further 24 hours fixation the specimens were flushed with water and surface stained with 0.3% Alcian Green 3BX. The colonic specimens were investigated by means of a Wild Photomacroscope—the extent of disease and the number of ulcerations were quantitated. For histologic analysis specimens were taken out (in a blinded way) from the proximal, middle and distal colon and embedded in paraffin. Histologic sections of 5 μm were stained with PAS-hematoxylin-aurentia. The severety of colitis was scored by means of a histologic colitis score (Williams K L. et al. Gastroenterology 2001; 120:925-37).

**Q.** What does the source list for “TFF3 dimer: dimer form of recombinant human TFF3; two TFF3 monomers linked by a disulfide bond between Cys57 of each monomer (EEYVGLSANQCAVPAKDRVDCGYPHVTPKECNNRGCCFDSRIPGVPWCFKPLQEAECTF; not fully specified (bridges); also: homodimer via disulfide between Cys57 of each monomer)”?
**A.** Elastic modules G′ ([1]; 0.01 Hz): 19 Pa; Viscous modulus G″ ([1]; 0.01 Hz): 18 Pa; Elastic modules G′ ([1]; 0.1 Hz): 52 Pa; Viscous modulus G″ ([1]; 0.1 Hz): 37 Pa; Elastic modules G′ ([1]; 1 Hz): 86 Pa; Viscous modulus G″ ([1]; 1 Hz): 54 Pa; Elastic modulus and viscous modulus compared to the mucin solution ([1]; mucin/TFF3 dimer gel-like structure vs mucin solution): dramatically increased; Effect on the viscosity of the mucin I solution [2]: significant effect

**Q.** For “TFF3: trefoil factor 3 given intraluminally to rats; Example 2 does not state monomer or dimer form (EEYVGLSANQCAVPAKDRVDCGYPHVTPKECNNRGCCFDSRIPGVPWCFKPLQEAECTF; not fully specified (bridges); cysteine pairing not given here; UniProt Q07654 22-80, looked up)”, which “Overall colitis score (histologic)” value ([3]; rat, TFF3 5 mg/kg intraluminal twice daily day 4-7, control (NaCl) 10.8, p<0.01) is on record?
**A.** The value was 3.4.

**Q.** What about the “Severity of mitomycin induced colitis” value ([3]; rats, intraluminal treatment) of the same substance?
**A.** Its value is “reduces the severity”.

**Q.** And the “Overall colitis score (histologic)” value ([4]; rat, TFF3 5 mg/kg intraluminal twice daily till day 9, control (NaCl) 3.18, p<0.05)?
**A.** The value was 1.1.

**Q.** What about the “Histologic colitis score in the midsegment of the colon” value ([4]; rat, TFF3 5 mg/kg intraluminal twice daily, control 1.8, p<0.05) of the same substance?
**A.** The value was 0.4.

**Q.** And the “Severity of dextran induced colitis” value ([4]; rats, intraluminal treatment)?
**A.** The value was “reduces the severity”.
